The test system of data set [1] is HBV. The data set can be described thus: In vitro anti-HBV activity in HepG2.2.15 cell line (intracellular HBV DNA by qPCR at 1 μM). Type of data set: cell-based. The conditions noted are these: Hepatitis B virus, 144 h; HepG2.2.15 cells, 1 μM compound, 6 days, intracellular HBV DNA as percentage compared to vehicle control (0.5% DMSO). The essentials:
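HepG2.2.15 cells given compound at 1 μM (0.5% DMSO final) for 3 days, then fresh compound-containing medium for 3 more days. After 6 days intracellular HBV DNA measured by qPCR. Expressed as % of 0.5% DMSO vehicle control and binned into letter ranges.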

Data set [2] deals with HBV. The data set can be described thus: Effect on intrahepatic HBV DNA levels in HepG2.2.15 cells (EC50). Type of data set: cell-based. To be noted: Hepatitis B virus, 144 h, 6 days, intrahepatic HBV DNA by qPCR, read-out: Anti-HBV DNA (EC50). The method in brief: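 Over 6 days at 37° C., HepG2.2.15 cells were treated with compound in 10% FCS medium, refreshed with compound after day 3. Intracellular HBV DNA was quantified by qPCR from cell lysates, and EC50 fitted by nonlinear regression relative to no-drug controls.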

Data set [3] can be described thus: Cytotoxicity (MTT) in HepG2.2.15 cells. The class given is cell-based. To be noted: human, 6 days treatment, read-out: HepG2.1.15 cytotoxicity (CC50). The method in brief: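 Adhered HepG2.2.15 cells were exposed to compounds for 6 days, then given […] MTT in serum-free medium for 2 h. Formazan dissolved in DMSO was read at 570 nm. CC50 (50% cell death) came from four-parameter fitting of viability versus concentration.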

Data set [4] concerns the target T1, HBV core protein (Cp149) (Hepatitis B virus genotype D subtype ayw, UniProt P03146).
T1 construct: HBV core C-terminally truncated protein (HBV Cp149); made in house
Briefly: HBV capsid assembly by size exclusion chromatography (SEC). Type of data set: biochemical. The conditions noted are these: 50 μM compound, 15 μM Cp149, 16 hours at 21° C.

The subject of data set [5] is HBV genotype D. The data set can be described thus: HBV-infected primary human hepatocytes (PHH). The class given is cell-based, Hepatitis B virus. On the procedure:
Primary human hepatocytes (PHH) were infected with HBV genotype D produced from HepG2.2.15 cell line on day 1 after plating. Subsequently, the PHH were treated with various concentrations of compounds into 2 different treatment schemes. For treatment scheme 1, the compounds were added into PHH simultaneously with infection media, and incubated for additional 6 days. For treatment scheme 2, the compounds were added into PHH at day 3 after infection, and further incubated for 6 days. After treatment, the cell culture supernatants were collected for the determinations of HBV DNA by qPCR, pgRNA by RT-PCR, HBsAg and HBeAg by ELISA, and cell viability by CCK-8. The cells were harvested for detection of intracellular cccDNA by southern blot.

The test system of data set [6] is HBV genotypes A to D. Type of data set: cell-based. To be noted: transfected HepG2 cells.
The target in data set [7] is T2, HBV construct U95551 (wild-type) (Hepatitis B virus genotype D subtype ayw, UniProt P03146).
T2 construct: expressed in transfected cells; host or cells: HepG2
Type of data set: cell-based. To be noted: relative to the wild type construct.

For data set [8], the target named is HBV core protein variant F23Y (Hepatitis B virus genotype D subtype ayw, UniProt P03146, F23Y). The data set can be described thus: Anti-HBV activity in core protein variants: F23Y. Type of data set: cell-based. The conditions noted are these: relative to the wild type construct.
Data set [9] addresses HBV core protein variant D29G (Hepatitis B virus genotype D subtype ayw, UniProt P03146, D29G). The data set can be described thus: Anti-HBV activity in core protein variants: D29G. To be noted: relative to the wild type construct. The class given is cell-based.
Data set [10] has as its target HBV core protein variant T33N (Hepatitis B virus genotype D subtype ayw, UniProt P03146, T33N). Briefly: Anti-HBV activity in core protein variants: T33N. Type of data set: cell-based. To be noted: relative to the wild type construct.
The target in data set [11] is HBV core protein variant I105T (Hepatitis B virus genotype D subtype ayw, UniProt P03146, I105T). Briefly: Anti-HBV activity in core protein variants: I105T. The class given is cell-based. The conditions noted are these: relative to the wild type construct.
Data set [12] has as its target HBV core protein variant T109I (Hepatitis B virus genotype D subtype ayw, UniProt P03146, T109I). Briefly: Anti-HBV activity in core protein variants: T109I. To be noted: relative to the wild type construct. The class given is cell-based.
Data set [13] has as its target HBV core protein variant T109M (Hepatitis B virus genotype D subtype ayw, UniProt P03146, T109M). Briefly: Anti-HBV activity in core protein variants: T109M. Type of data set: cell-based. The conditions noted are these: relative to the wild type construct.
For data set [14], the target named is HBV core protein variant Y118F (Hepatitis B virus genotype D subtype ayw, UniProt P03146, Y118F). Briefly: Anti-HBV activity in core protein variants: Y118F. The class given is cell-based. The conditions noted are these: relative to the wild type construct.
A short description of data set [15]: Pharmacokinetic study in rats. Type of data set: in vivo, male Sprague-Dawley rats. As to the method:
(§1) Test compounds were administered to male Sprague-Dawley rats and male Beagle dogs by oral (PO) and intravenous (TV) administration. For TV dosing, test compounds were dosed at 0.2 to 0.5 mg/kg using a formulation of 10% dimethyl sulfoxide in 20% hydroxypropyl beta-cyclodextrin solution via IV bolus. For PO dosing, test compounds were dosed at 0.3 to 2.0 mg/kg using a formulation of 40% polyethylene glycol 400 in water via oral gavage. Blood samples were collected at pre-dose and various time points up to 24 hours post-dose, and centrifuged to obtain plasma samples. The plasma concentrations of test compounds were quantified by LC-MS/MS methods. The relevant pharmacokinetic parameters (Table D) were calculated via non-compartmental analysis using WinNonlin (Phoenix™, version 8.3).

Data set [16] can be described thus: Pharmacokinetic study in dogs. Type of data set: in vivo, male Beagle dogs. On the procedure: as §1
In data set [17] the target is T3, HBV capsid (Hepatitis B virus genotype D subtype ayw, UniProt P03146).
T3 construct: expressed in transfected cells; host or cells: HepG2.2.15
Briefly: Mechanistic study in stably HBV expressed HepG2.2.15 cells (capsid, encapsidated DNA/RNA, core protein blots). The conditions noted are these: HepG2.2.15, 6 days. Type of data set: cell-based. On the procedure:
The stably HBV expressed HepG2.2.15 cells were treated with test compounds, at various concentrations in culture medium, at 37° C. for three days. After that the medium was removed and fresh medium containing the compound was added to the cells for another 3 days. After 6 days of treatment, cellular lysates from the treated cells were assessed by non-denatured agarose gel electrophoresis. HBV capsid was detected by western blot with monoclonal anti-HBV core. Encapsidated HBV DNA and RNA were detected by southern blot and northern blot. Intracellular HBV core protein was assessed by western Blot with a monoclonal mouse anti-HBV core. β-actin protein assessed by western blot was used as an internal control.

Molecules are shown by their SMILES.

Molecule `Cc1cc(NC(=O)[C@H]2CCN(C(=O)c3ccc(-c4c(C)ncnc4C)[nH]3)[C@H]2C)ccc1F` [Example 149, (2S,3S)-1-(5-(4,6-dimethylpyrimidin-5-yl)-1H-pyrrole-2-carbonyl)-N-(4-fluoro-3-methylphenyl)-2-methylpyrrolidine-3-carboxamide] gave an activity at 1 µM in data set [1] below 45%. Besides, the EC50 in data set [2] is below 0.05 µM. Besides, the CC50 at 6 days in [3] fell in the range of 10 to 25 µM. Further, the “Size of induced capsids based on SEC retention times” value in data set [4] is “induced capsids similar in size to NVR 3-778”. Besides, the “HBeAg in PHH” value in [5] (treatment scheme 1) was “inhibited”. The “HBsAg in PHH” value in data set [5] (treatment scheme 1) is reported as “inhibited”. Also, the “HBV DNA in PHH” value in data set [5] (treatment scheme 1 (compound added simultaneously with infection media, 6 days)) is recorded as “inhibited”. Further, the “cccDNA establishment in PHH” value in data set [5] (treatment scheme 1, southern blot) was “inhibited”. The “Anti-HBV activity across HBV genotypes” value in data set [6] is reported as “effective across all HBV genotypes tested (A to D)”. Besides, the “Fold change in EC50, U95551 (wild-type)” value in data set [7] was “B (B=1-5)”. The “Fold change in EC50, F23Y” value in data set [8] is on record as “C (C=5-15)”. The “Fold change in EC50, D29G” value in data set [9] was “B (B=1-5)”. In data set [10], the “Fold change in EC50, T33N” value is given as “D (D>15)”. For the same molecule, the “Fold change in EC50, I105T” value in data set [11] is on record as “B (B=1-5)”. Also, the “Fold change in EC50, T109I” value in data set [12] is “A (A<1)”. Also, the “Fold change in EC50, T109M” value in [13] is recorded as “A (A<1)”. Besides, in [14], the “Fold change in EC50, Y118F” value is recorded as “A (A<1)”. In addition, the “CL (mL/min/kg) Rat” value in data set [15] (IV 0.2 to 0.5 mg/kg) amounted to 20.0 mL/min/kg. Besides, in [15] (PO 0.3 to 2.0 mg/kg), the “F (%) Rat” value stood at 44%. Also, the Vd in [15] (male, Sprague-Dawley, plasma, rat, IV 0.2 to 0.5 mg/kg, read-out: Vd,ss (L/kg) Rat) worked out at 2.92 L/kg; in data set [16] (male, Beagle, plasma, dog, IV 0.2 to 0.5 mg/kg, read-out: Vd,ss (L/kg) Dog) it was 1.3 L/kg. Moreover, the half-life was 6.5 h in [15] (male, Sprague-Dawley, rat, plasma, read-out: t1/2 (h) Rat (converted)) and 4.5 h in data set [16] (male, Beagle, dog, plasma, read-out: t1/2 (h) Dog (converted)). Further, the “F (%) Dog” value in data set [16] (PO 0.3 to 2.0 mg/kg) came to 63%. In [16] (male, Beagle, plasma, dog, IV 0.2 to 0.5 mg/kg, read-out: CL (mL/min/kg) Dog), the clearance was 5.1 mL/min/kg.
For `CCOC(=O)C1=C(CN2CCOCC2)NC(c2nccs2)=NC1c1ccc(F)cc1Br` (centres unmarked) [GLS4, reference compound], the “HBV capsid (formation of DNA- and RNA-devoid capsid)” value in data set [17] (various concentrations) was “induced formation of DNA- and RNA-devoid capsid”. The “Intracellular HBV core protein level” value in [17] (western blot) is on record as “reduced intracellular HBV core protein level in the concentration-dependent manner”. Further, the “Fold change in EC50, U95551 (wild-type)” value in data set [7] is reported as “B (B=1-5)”. The “Fold change in EC50, F23Y” value in data set [8] is listed as “C (C=5-15)”. Also, the “Fold change in EC50, D29G” value in [9] is reported as “B (B=1-5)”. Further, the “Fold change in EC50, T33N” value in [10] is recorded as “D (D>15)”. Also, the “Fold change in EC50, I105T” value in data set [11] is given as “B (B=1-5)”. Besides, the “Fold change in EC50, T109I” value in data set [12] is given as “C (C=5-15)”. In [13], the “Fold change in EC50, T109M” value was “B (B=1-5)”. The “Fold change in EC50, Y118F” value in [14] was “B (B=1-5)”.

(Values after patent US20230391752A1, “PYRROLIDINE-3-CARBOXAMIDE DERIVATIVES AND RELATED USES” (Chulalongkorn University, priority 2020, published 2023).)
